From patent publication US20070149469A1, “Medical use of tbk-1 or of inhibitors thereof” (priority 2003, published 2007)

Columns and labels:
[1] = tested on: TBK-1 mRNA; test: TBK-1 mRNA knock down by RNAi in HEK 293 cells, quantitative RT-PCR relative to G6PDH; format: cell-based, human; conditions: 100 nM siRNA
Method: Real-time PCR was carried out using a LightCycler (Roche Diagnostics). Reactions were set up in microcapillary tubes using the following final concentrations: 0.5 μM each of TBK-1 sense (TTGAAGAGGAGACAACAACAAGA) and TBK-1 antisense (CAT TCC ACC CAC CAC ATC T) primers, 3 mM MgCl2, 1×SYBR Greenmaster mix and 2 μl of cDNA.
(§1) Cycling conditions for TBK-1 were as follows: denaturation (95° C. for 10 min), amplification and quantitation (95° C. for 10 s, 58° C. for 10 s and 72° C. for 13 s, with a single fluorescence measurement at the end of the 72° C. for 13 s segment) repeated 45 times. A melting curve program (55-95° C. with a heating rate of 0.1° C./s and continuous fluorescence measurement) and a cooling step to 40° C. followed.
(§2) For relative quantification the procedure was repeated for G6PDH mRNA as reference gene. Data were analyzed using LightCycler analysis software.
(§3) HEK 293 cells were transfected with double stranded RNAi oligos specific for TBK-1 using siPORT Amine according to the manufacture's protocol (Ambion Europe LTD, Cambridgeshire, United Kingdom). […] Under these conditions, increased expression of VEGF is observed and can be detected via VEGF ELISA (as shown in example 3).
To determine the functionality of the RNAi molecule regarding inhibition of TBK-1 expression, relative expression levels of TBK-1 mRNAs were analysed by quantitative real-time PCR. […]

[2] = tested on: VEGF mRNA; test: Hypoxia (CoCl2)-induced VEGF mRNA expression in HEK 293 cells after TBK-1 RNAi, quantitative RT-PCR relative to G6PDH; format: cell-based, human; conditions: 100 nM siRNA
Method: Real-time PCR was carried out using a LightCycler (Roche Diagnostics). Reactions were set up in microcapillary tubes using the following final concentrations: 0.5 μM each of VEGF sense (CTTGCCTTGCTGCTCTACCT) and VEGF antisense (GATTCTGCCCTCCTCCTTCT) primers, 3 mM MgCl2, 1×SYBR Greenmaster mix and 2 μl of cDNA. For TBK-1 0.5 μM each of TBK-1 sense (TTGAAGAGGAGACAACAACAAGA) and TBK-1 antisense (CAT TCC ACC CAC CAC ATC T) primers were used.
as §1, with “VEGF” for “TBK-1”, “followed. Cycling conditions for TBK-1 were identical.” for “followed.”
as §2
as §3, with “3). […]” for “3).”

[3] = tested on: normal human dermal fibroblasts (NHDF); test: NHDF proliferation after transfer of supernatants from transfected HEK 293 cells, Alamar Blue; format: cell-based; conditions: 25 μl HEK 293 supernatant, 4 days, versus empty vector
Method: In order to investigate the cell type specificity of TBK-1, supernatants from transfected HEK 293 cells were also added to normal human dermal fibroblasts (NHDF). NHDF were seeded at 1,000 cells per well on 96-well tissue culture plates two days prior to the transfer in 100 μl complete Fibroblast Growth Medium (Promocell, Heidelberg). 24 h prior to the transfer the medium was changed to 100 μl Fibroblast Basal Medium (Promocell, Heidelberg) containing 75 μg/ml gentamycin, 50 ng/ml amphotericin B. After 25 μl of HEK 293 supernatant had been transferred, cells were incubated for 4 days and viable cell number was assessed by Alamar Blue reduction as above.

| Substance | inhibition of expression of TBK-1 mRNA [1] [%] | induction of VEGF mRNA under hypoxia [2] | stimulation of NHDF proliferation [3] |
| --- | --- | --- | --- |
| TBK-1 RNAi: double stranded RNAi oligo specific for TBK-1: sense GGA GAC AAC AAC AAG ACA Utt, antisense AUG UCU UGU UGU UGU CUC Ctc (sense GGAGACAACAACAAGACAU; antisense AUGUCUUGUUGUUGUCUCCC; listed as RNA, chemistry not given here) | > 85 | significantly reduces | – |
| FGF-2 | – | – | clearly responsive |
